Legend:
Mus musculus [1] = experiment: Compound was evaluated for %T/C in P388 leukemia implanted BDF1 mice on day 0 after ip administration of 10 mg/kg/day on day 1; assay type: functional; conditions: route intraperitoneal
Mus musculus [2] = experiment: Compound was evaluated for %T/C in L1210 leukemia implanted BDF1 mice on day 0 after ip administration of 50 mg/kg/day on day 1-9; assay type: functional; conditions: route intraperitoneal
Mus musculus [3] = experiment: Compound was tested for mortality in L1210 leukemia implanted BDF1 mice on day 0 after ip administration of 10 mg/kg/day on days 1-5 out of 5 mice; assay type: functional; conditions: route intraperitoneal
Mus musculus [4] = experiment: Compound was tested for mortality in L1210 leukemia implanted BDF1 mice on day 0 after ip administration of 20 mg/kg/day on days 1-5 out of 5 mice; assay type: functional; conditions: route intraperitoneal
Mus musculus [5] = experiment: Compound was evaluated for %T/C in P388 leukemia implanted BDF1 mice on day 0 after ip administration of 10 mg/kg/day on day 1-5; assay type: functional; conditions: route intraperitoneal
Mus musculus [6] = experiment: Compound was tested for mortality in P388 leukemia implanted BDF1 mice on day 0 after ip administration of 10 mg/kg/day on day 1-5 out of 5 mice; assay type: functional; conditions: route intraperitoneal
Mus musculus [7] = experiment: Compound was evaluated for number of survivors in P388 leukemia implanted BDF1 mice on day 0 after ip administration of 2.5 mg/kg/day on day 60 out of 5 mice; assay type: functional; conditions: route intraperitoneal
Mus musculus [8] = experiment: Compound was tested for mortality in P388 leukemia implanted BDF1 mice on day 0 after ip administration of 20 mg/kg/day on day 1-5 out of 5 mice; assay type: functional; conditions: route intraperitoneal
Mus musculus [9] = experiment: Compound was evaluated for %T/C in L1210 leukemia implanted BDF1 mice on day 0 after ip administration of 20 mg/kg/day on days 1-5; assay type: functional; conditions: route intraperitoneal
Mus musculus [10] = experiment: Compound was evaluated for number of survivors in L1210 leukemia implanted BDF1 mice on day 0 after ip administration of 2.5 mg/kg/day on day 60 out of 5 mice; assay type: functional; conditions: route intraperitoneal
Mus musculus [11] = experiment: Compound was tested for mortality in L1210 leukemia implanted BDF1 mice on day 0 after ip administration of 12.5 mg/kg/day on day 1-9 out of 6 mice; assay type: functional; conditions: route intraperitoneal
Mus musculus [12] = experiment: Compound was evaluated for %T/C in L1210 leukemia implanted BDF1 mice on day 0 after ip administration of 12.5 mg/kg/day on day 1-9; assay type: functional; conditions: route intraperitoneal
Mus musculus [13] = experiment: Compound was tested for mortality in P388 leukemia implanted BDF1 mice on day 0 after ip administration of 10 mg/kg/day on day 1 out of 5 mice; assay type: functional; conditions: route intraperitoneal
Mus musculus [14] = experiment: Compound was evaluated for %T/C in L1210 leukemia implanted BDF1 mice on day 0 after ip administration of 5 mg/kg/day on day 1; assay type: functional; conditions: route intraperitoneal
Mus musculus [15] = experiment: Compound was tested for mortality in P388 leukemia implanted BDF1 mice on day 0 after ip administration of 50 mg/kg/day on day 1-5 out of 6 mice; assay type: functional; conditions: route intraperitoneal
Mus musculus [16] = experiment: Compound was evaluated for number of survivors in L1210 leukemia implanted BDF1 mice on day 0 after ip administration of 25 mg/kg/day on day 60 out of 6 mice; assay type: functional; conditions: route intraperitoneal
Mus musculus [17] = experiment: Compound was evaluated for %T/C in L1210 leukemia implanted BDF1 mice on day 0 after ip administration of 10 mg/kg/day on day 1; assay type: functional; conditions: route intraperitoneal
Mus musculus [18] = experiment: Compound was evaluated for number of survivors in L1210 leukemia implanted BDF1 mice on day 0 after ip administration of 12.5 mg/kg/day on day 60 out of 6 mice; assay type: functional; conditions: route intraperitoneal
Mus musculus [19] = experiment: Compound was evaluated for %T/C in L1210 leukemia implanted BDF1 mice on day 0 after ip administration of 6.25 mg/kg/day on day 1-9; assay type: functional; conditions: route intraperitoneal
Mus musculus [20] = experiment: Compound was tested for mortality in L1210 leukemia implanted BDF1 mice on day 0 after ip administration of 5 mg/kg/day on day 1 out of 5 mice; assay type: functional; conditions: route intraperitoneal
Mus musculus [21] = experiment: Compound was tested for mortality in L1210 leukemia implanted BDF1 mice on day 0 after ip administration of 80 mg/kg/day on day 1 out of 5 mice; assay type: functional; conditions: route intraperitoneal
Mus musculus [22] = experiment: Compound was evaluated for %T/C in P388 leukemia implanted BDF1 mice on day 0 after ip administration of 80 mg/kg/day on day 1; assay type: functional; conditions: route intraperitoneal
Mus musculus [23] = experiment: Compound was evaluated for number of survivors in L1210 leukemia implanted BDF1 mice on day 0 after ip administration of 5 mg/kg/day on day 60 out of 5 mice; assay type: functional; conditions: route intraperitoneal
[24] = Half-life period in 95% ethanol in dark at 28 degrees celsius.; assay type: ADME
Mus musculus [25] = experiment: Compound was evaluated for %T/C in P388 leukemia implanted BDF1 mice on day 0 after ip administration of 50 mg/kg/day on day 1-5; assay type: functional; conditions: route intraperitoneal
Mus musculus [26] = experiment: Compound was evaluated for number of survivors in L1210 leukemia implanted BDF1 mice on day 0 after ip administration of 40 mg/kg/day on day 60 out of 5 mice; assay type: functional; conditions: route intraperitoneal
Mus musculus [27] = experiment: Compound was tested for mortality in L1210 leukemia implanted BDF1 mice on day 0 after ip administration of 5 mg/kg/day on day 1-5 out of 5 mice; assay type: functional; conditions: route intraperitoneal
Mus musculus [28] = experiment: Compound was evaluated for %T/C in P388 leukemia implanted BDF1 mice on day 0 after ip administration of 12.5 mg/kg/day on day 1-5; assay type: functional; conditions: route intraperitoneal
Mus musculus [29] = experiment: Compound was evaluated for number of survivors in P388 leukemia implanted BDF1 mice on day 0 after ip administration of 80 mg/kg/day on day 60 out of 5 mice; assay type: functional; conditions: route intraperitoneal
Mus musculus [30] = experiment: (§1) Compound was evaluated for number of survivors in L1210 leukemia implanted BDF1 mice on day 0 after ip administration of 20 mg/kg/day on day 60 out of 5 mice; assay type: functional; conditions: route intraperitoneal
Mus musculus [31] = experiment: Compound was tested for mortality in P388 leukemia implanted BDF1 mice on day 0 after ip administration of 20 mg/kg/day on day 1 out of 5 mice; assay type: functional; conditions: route intraperitoneal
Mus musculus [32] = experiment: as §1; assay type: functional; conditions: route intraperitoneal; remark: listed apart in the source
Mus musculus [33] = experiment: Compound was evaluated for number of survivors in L1210 leukemia implanted BDF1 mice on day 0 after ip administration of 80 mg/kg/day on day 60 out of 5 mice; assay type: functional; conditions: route intraperitoneal
Mus musculus [34] = experiment: Compound was tested for mortality in L1210 leukemia implanted BDF1 mice on day 0 after ip administration of 6.25 mg/kg/day on day 1-9 out of 6 mice; assay type: functional; conditions: route intraperitoneal
Mus musculus [35] = experiment: Compound was evaluated for %T/C in L1210 leukemia implanted BDF1 mice on day 0 after ip administration of 5 mg/kg/day on day 1-5; assay type: functional; conditions: route intraperitoneal
Mus musculus [36] = experiment: Compound was evaluated for number of survivors in P388 leukemia implanted BDF1 mice on day 0 after ip administration of 6.25 mg/kg/day on day 60 out of 6 mice; assay type: functional; conditions: route intraperitoneal
Mus musculus [37] = experiment: Compound was tested for mortality in L1210 leukemia implanted BDF1 mice on day 0 after ip administration of 50 mg/kg/day on day 1-9 out of 6 mice; assay type: functional; conditions: route intraperitoneal
Mus musculus [38] = experiment: Compound was tested for mortality in P388 leukemia implanted BDF1 mice on day 0 after ip administration of 12.5 mg/kg/day on day 1-5 out of 6 mice; assay type: functional; conditions: route intraperitoneal
Mus musculus [39] = experiment: Compound was evaluated for number of survivors in P388 leukemia implanted BDF1 mice on day 0 after ip administration of 25 mg/kg/day on day 60 out of 6 mice; assay type: functional; conditions: route intraperitoneal

Work on `NC(=O)c1ncn2c(=O)n(CCCl)nnc12` [MITOZOLOMIDE] yielded a T/C (Mus musculus [1]) of 164%, a T/C (Mus musculus [2]) of 137% and a Mortality (Mus musculus [3]) of 0. The Mortality (Mus musculus [4]) was 0, the T/C (Mus musculus [5]) was >555% and the Mortality (Mus musculus [6]) was 0. The Survivors (Mus musculus [7]) was 0, the Mortality (Mus musculus [8]) was 0 and the T/C (Mus musculus [9]) was >577%. For the same compound, the Survivors (Mus musculus [10]) was 0, the Mortality (Mus musculus [11]) was 0 and the T/C (Mus musculus [12]) was >745%. For the same compound, the Mortality (Mus musculus [13]) was 0, the T/C (Mus musculus [14]) was 111% and the Mortality (Mus musculus [15]) was 0. It also gave a Survivors (Mus musculus [16]) of 6, a T/C (Mus musculus [17]) of 131% and a Survivors (Mus musculus [18]) of 6. It also gave a T/C (Mus musculus [19]) of 184%, a Mortality (Mus musculus [20]) of 0 and a Mortality (Mus musculus [21]) of 0. For the same compound, the T/C (Mus musculus [22]) was 74%, the Survivors (Mus musculus [23]) was 0 and the half-life [24] was 1.2 h. The T/C (Mus musculus [25]) was 153%, the Survivors (Mus musculus [26]) was 5 and the Mortality (Mus musculus [27]) was 0. The T/C (Mus musculus [28]) was 275%, the Survivors (Mus musculus [29]) was 0 and the Survivors (Mus musculus [30]) was 1. For the same compound, the Mortality (Mus musculus [31]) was 0, the Survivors (Mus musculus [32]) was 5 and the Survivors (Mus musculus [33]) was 0. For the same compound, the Mortality (Mus musculus [34]) was 0, the T/C (Mus musculus [35]) was 139% and the Survivors (Mus musculus [36]) was 0. For the same compound, the Mortality (Mus musculus [37]) was 0, the Mortality (Mus musculus [38]) was 0 and the Survivors (Mus musculus [39]) was 4.

Source: ChEMBL document CHEMBL1122784, “Antitumor imidazotetrazines. 1. Synthesis and chemistry of 8-carbamoyl-3-(2-chloroethyl)imidazo[5,1-d]-1,2,3,5-tetrazin-4(3 H)-one , a novel broad-spectrum antitumor agent” (J Med Chem, 1984)
